Active and inactive are the calls of the source. How the calls were made is not given here.
Assays:
[1] = NFkB reporter suppression in cystic fibrosis bronchial cells – cell-based, uHTS hits, panel, cytotoxicity readout, dose response (AID 624344); details: CF bronchial epithelial cells, PAF-induced NFkB reporter inhibition; with PAF, mean of runs
Cytotoxicity = assay: as above; details: CF bronchial epithelial cells, mean of runs

| Structure (SMILES) | IC50 [1] | IC50 (Cytotoxicity) |
| --- | --- | --- |
| CCc1cc2c(Sc3nc4ccccc4s3)ncnc2s1 | 1.03 µM | 1.74 µM |
| COc1ccc(S(=O)(=O)N(C(C)=O)c2ccc(OC(C)=O)c3ccccc23)cc1[N+](=O)[O-] | 3.38 µM | 6.46 µM |
| CN(C)C(=O)c1cccc(-c2cnc3sc(NCc4ccc5c(c4)OCO5)nn23)c1 | 1.69 µM | 46.5 µM |
| CCc1ccc(N(CC)c2ncnc3nc[nH]c23)cc1 | 1.82 µM | > 79 µM (inactive) |
| CC(=O)Oc1c(C(=O)c2nnc(C)o2)c(=O)n(Cc2ccccc2)c2ccccc12 | 2.36 µM | 14.9 µM |
| Cc1cnc(C=O)c2cccc([N+](=O)[O-])c12 | 3.35 µM | 60.6 µM (inactive) |
| COc1ccc(S(=O)(=O)N2c3ccc(F)cc3CCC2C)cc1 (configuration not stated) | inactive | > 79 µM (inactive) |
| NC(=O)c1sc2nc3c(c(-c4ccco4)c2c1N)CCCC3 | 2.73 µM | 44.5 µM |
| Cc1cc(C)c(C#N)c(SCC(=O)c2ccc(Cl)cc2Cl)n1 | 6.02 µM | 14.8 µM |
| Brc1ccc2ncnc(NCc3cccnc3)c2c1 | 2.25 µM | 66.2 µM (inactive) |
| CC(C)(C)OC(=O)NCCCCCNC(=O)c1nc[nH]c1C(=O)NCC(=O)OCc1ccccc1 | 3.56 µM | 9.6 µM |
| Clc1cncc(Cl)c1N/N=C/c1ccncc1 | 1.67 µM | 12.5 µM |
| Cc1ccc2[nH]cc(C(=O)CCl)c2c1 | 2.32 µM | 4.07 µM |
| O=[N+]([O-])c1cccc(NC(=S)Nc2nc(-c3ccccc3Cl)cs2)c1 | 6.59 µM | 10.1 µM |
| Nc1ncnc(Sc2ccc(Cl)cc2)c1[N+](=O)[O-] | 4.13 µM | 11.6 µM |
| O=C(Nc1ccc2c(c1)OCCO2)c1cc(-c2ccccn2)nc2ccc(Br)cc12 | inactive | 49.4 µM |
| Cc1nnc(NC(=O)Nc2ccc(Cl)c(Cl)c2)s1 | 2.78 µM | 15.3 µM |
| COc1ccc(-c2cn[nH]c2-c2ccc(OCc3ccccc3)cc2O)cc1 | 3.7 µM | 16.7 µM |
| C[C@H]1C[C@@H](C)C(=O)[C@@H]([C@H](O)CC2CC(=O)NC(=O)C2)C1 | 0.37 µM | 8.86 µM |
| CC(C)n1c(SCc2ccccc2F)nc2c1c(=O)n(C)c(=O)n2C | 7.01 µM | > 79 µM (inactive) |
| CC(C)c1nc(Cl)c(C#N)c2c1CCCC2 | 3.57 µM | 71.6 µM (inactive) |

| Structure (SMILES) | IC50 [1] | IC50 (Cytotoxicity) |
| --- | --- | --- |
| O=C1/C(=C/c2cccnc2)CCc2c1[nH]c1ccccc21 | 5.47 µM | 25.1 µM |
| CCOc1ccc(Nc2ncnc3ccc([N+](=O)[O-])cc23)cc1 | 1.67 µM | 21.4 µM |
| Cc1ccc(C(=O)c2cncc(Br)c2)cc1 | 13 µM | > 79 µM (inactive) |
| COc1cncc(-c2cnc3sc(NCCc4ccccn4)nn23)c1 | 1.53 µM | > 79 µM (inactive) |
| CN(Cc1ccccc1)c1ncnc(N)c1[N+](=O)[O-] | 3.49 µM | 54.8 µM (inactive) |
| O=C(Nc1nnc(C(F)(F)F)s1)c1ccc(Br)s1 | 2.28 µM | 27.8 µM |
| Cc1c(-c2ccccc2)oc2c(C(=O)N3CCN(c4ccc([N+](=O)[O-])cc4)CC3)cccc2c1=O | 0.854 µM | > 79 µM (inactive) |
| Cc1ccc(N(C)C(=O)c2cc(S(=O)(=O)N3CCCCC3)c[nH]2)cc1 | 11.5 µM | > 79 µM (inactive) |
| CC(=O)Nc1ccc(NC(=O)C(C)OC(=O)c2ccccc2C(=O)c2ccc(Cl)c([N+](=O)[O-])c2)cc1 (configuration not stated) | 15.3 µM | 45.2 µM |
| Clc1ccc(-c2csc3ncnc(N4CCc5ccccc5C4)c23)cc1 | 3.99 µM | 19.2 µM |
| CC(C)[C@H](CO)Nc1nc(NCc2ccc(S(N)(=O)=O)cc2)c2ncn(C(C)C)c2n1 | 1.67 µM | 11.9 µM |
| COc1ccc(-c2cn[nH]c2-c2ccc(OC)cc2O)cc1 | 2.92 µM | 46.4 µM |
| CCCC1/C(=N/O)CC(c2ccccc2)NC1c1ccccc1 (configuration not stated) | 5.52 µM | 6.23 µM |
| CC1(Cc2cccc(F)c2)C(=O)Nc2ccc(-c3cccnc3)cc21 (configuration not stated) | 1.58 µM | 67.9 µM (inactive) |
| COc1ccc(N(Cc2cc(=O)[nH]c3ccccc23)C(=O)CCl)cc1 | 2.89 µM | 4.29 µM |
| CC(C)C[C@@H](CN1CCCC1CN1C(=S)NC[C@@H]1Cc1ccc(O)cc1)N1C[C@H](Cc2ccc(O)cc2)N(CC2CCCCCC2)C1=S (some centres not stated) | 7.98 µM | 25.2 µM |
| Cc1c(Cl)cccc1NC(=O)CSc1nc2ncc(Cl)cc2[nH]1 | 10.6 µM | 15.5 µM |
| Cc1nn(-c2ccccn2)c2c1-c1nc(N)ncc1CC2 | 6.76 µM | 65.3 µM (inactive) |
| Cc1cccc(CS(=O)(=O)c2ncc(Cl)c(C(=O)NCc3ccccc3)n2)c1 | 2.47 µM | 2.27 µM |
| Cc1ccc(C(=O)Nc2cccc(C(F)(F)F)c2)cc1NC(=O)c1nccnc1N | 8.15 µM | 9.52 µM |
| NC(=O)c1cc2ccc(O)cc2oc1=Nc1ccccc1 | 1.41 µM | 44.8 µM |

| Structure (SMILES) | IC50 [1] | IC50 (Cytotoxicity) |
| --- | --- | --- |
| O=C(NCCC1=CCCCC1)c1coc(=O)c(Br)c1 | 3.01 µM | 10.7 µM |
| CN1CCN(c2ncnc3scc(-c4ccccc4Cl)c23)CC1 | 3.89 µM | 57.2 µM (inactive) |
| Cc1c(C(=O)c2cccc3ccccc23)c2cccc3c2n1[C@H](CN1CCOCC1)CO3 | 7.9 µM | 16.3 µM |
| COC1(OC)C=CC(=O)C=C1NC(=O)c1ccccc1OC(C)=O | 4.11 µM | 15.2 µM |
| NC(=O)c1c(Br)n(C2OC(CO)C(O)C2O)c2ncnc(N)c12 (configuration not stated) | 2.03 µM | 3.07 µM |
| O=[N+]([O-])c1ccc(O)c(C2CCCCC2)c1 | 2.04 µM | 3.28 µM |
| COc1cccc(-c2nnc3n2N=C(C(C)(C)C)CS3)c1 | 0.442 µM | 11.4 µM |
| Fc1cccc(Cl)c1/C=N/Nc1c(Cl)cncc1Cl | 5.83 µM | 26.2 µM |
| CC(C)Nc1ncnc2ccc(Br)cc12 | 0.706 µM | 10.8 µM |
| COc1ccc2ncn(-c3ccccc3)c2c1 | 5.47 µM | 60.6 µM (inactive) |
| CCN1CCN(Cc2ccc(NC(=O)c3ccc(C)c(NC(=O)c4cccc5[nH]ccc45)c3)cc2C(F)(F)F)CC1 | 7.33 µM | 47.7 µM |
| C=C1C(=O)[C@]23C[C@H]1CC[C@H]2[C@]1(C)[C@@H](O)CC[C@@](C)(C(=O)O)[C@H]1C[C@@H]3O | 2.04 µM | 12.5 µM |
| Cn1cccc1C(=O)NC(=O)COC(=O)c1ccc(S(C)(=O)=O)c([N+](=O)[O-])c1 | 5.26 µM | 5.85 µM |
| O=C(CCl)N(Cc1cc(=O)[nH]c2ccccc12)c1ccccc1 | 1.48 µM | 2.98 µM |
| Cc1cc(N2CCOCC2)c2c(N)c(Br)cc(C)c2n1 | 0.729 µM | 20 µM |
| C[C@@H]1CN([C@H](C)CO)C(=O)c2cc(NC(=O)Nc3ccc(C(F)(F)F)cc3)ccc2O[C@H]1CN(C)S(=O)(=O)c1ccccc1 | 9.21 µM | 77.2 µM (inactive) |
| NC(=O)c1nsc(C(=O)N(c2ccccc2)C(C(=O)NCc2ccc(F)cc2)c2ccc(O)cc2)c1N (configuration not stated) | 4.75 µM | 8.81 µM |
| CCOC(=O)c1c(-c2ccccc2)oc2cc(Br)c(O)c(C=O)c12 | 3.05 µM | 13.3 µM |
| CC(C)c1ccccc1NC(=O)COC(=O)c1c2c(nc3ccccc13)CCN(Cc1ccccc1)C2 | 6.98 µM | 21.2 µM |

From PubChem BioAssay AID624344 (Sanford-Burnham Center for Chemical Genomics, 2012)
